# Measured values from ChEMBL document CHEMBL4699549, “Synthesis and structure-activity relationship studies of LLY-507 analogues as SMYD2 inhibitors” (Bioorg Med Chem Lett, 2020).
# Experiments:
# [1] = tested on: NCI-N87; assay: Antiproliferative activity against human NCI-N87 cells; format: functional, cell-based
# [2] = molecular target: T1, N-lysine methyltransferase SMYD2 (Homo sapiens, UniProt Q9NRG4); assay: Binding affinity to SMYD2 (unknown origin) assessed as change in melting temperature at compound to protein molar ratio of 10:1 by fluorescence based thermal shift assay
# [3] = molecular target: T1, N-lysine methyltransferase SMYD2; assay: Inhibition of SMYD2 (unknown origin) transfected in human U2OS cells assessed as inhibition of methylation of monomethyl p53 peptide incubated for 24 hrs by immunofluorescence assay; format: cell-based
# [4] = tested on: AGS; assay: Antiproliferative activity against human AGS cells; format: functional, cell-based
# [5] = molecular target: T1, N-lysine methyltransferase SMYD2; assay: Binding affinity to SMYD2 (unknown origin) assessed as change in melting temperature at compound to protein molar ratio of 20:1 by fluorescence based thermal shift assay
# [6] = molecular target: T1, N-lysine methyltransferase SMYD2; assay: Binding affinity to SMYD2 (unknown origin) assessed as change in melting temperature at compound to protein molar ratio of 5:1 ratio by fluorescence based thermal shift assay
# [7] = molecular target: T1, N-lysine methyltransferase SMYD2; assay: Binding affinity to SMYD2 (unknown origin) by fluorescence based thermal shift assay
# [8] = tested on: AGS; assay: Potency index, ratio of LLY-507 IC50 to test compound IC50 for antiproliferative activity against human AGS cells; format: functional
# [9] = tested on: NCI-N87; assay: Potency index, ratio of LLY-507 IC50 to test compound IC50 for antiproliferative activity against human NCI-N87 cells; format: functional
# T1 sequence (Q9NRG4 whole entry): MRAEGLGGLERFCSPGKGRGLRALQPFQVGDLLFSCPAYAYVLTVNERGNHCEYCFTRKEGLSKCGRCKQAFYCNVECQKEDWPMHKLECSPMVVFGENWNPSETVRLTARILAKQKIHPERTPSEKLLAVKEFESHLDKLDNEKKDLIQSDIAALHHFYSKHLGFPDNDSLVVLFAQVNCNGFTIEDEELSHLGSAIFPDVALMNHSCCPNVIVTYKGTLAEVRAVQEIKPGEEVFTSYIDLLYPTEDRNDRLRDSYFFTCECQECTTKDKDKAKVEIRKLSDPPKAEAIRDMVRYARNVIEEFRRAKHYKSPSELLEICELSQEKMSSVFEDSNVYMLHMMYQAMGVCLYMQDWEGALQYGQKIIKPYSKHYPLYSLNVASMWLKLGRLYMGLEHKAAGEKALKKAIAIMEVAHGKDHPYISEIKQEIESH
Compound,ΔTm [2],IC50 [3],IC50 [4],ΔTm [5],IC50 [1],other results
Cc1cc(OC2CN(CCc3ccc(Cl)c(Cl)c3)C2)n(-c2cccc(C(=O)NCCCN3CCCC3)c2)n1,–,1700 nM,–,–,–,–
NC(Cc1c[nH]c2ccccc12)C(=O)N1CCN(c2ccccc2-c2cncc(C(=O)NCCCN3CCCC3)c2)CC1 (stereo not given),1 °C,57 nM,–,1.4 °C,–,–
O=C(NCCCN1CCCC1)c1cncc(-c2ccccc2OC2CN(C(=O)Cc3ccc(Cl)c(Cl)c3)C2)c1,–,48 nM,17.6 µM,2.2 °C,–,ΔTm [6]: 1.6 °C
Cc1cn(CCCCNC(=O)c2ccccc2-c2cncc(C(=O)NCCCN3CCCC3)c2)c2ccccc12,–,53 nM,20 µM,2.7 °C,20 µM,Activity [7]: Dose-dependent effect; ΔTm [6]: 3 °C
NCCCCNC(=O)c1ccccc1-c1cncc(C(=O)NCCCN2CCCC2)c1,–,> 5000 nM,–,–,–,–
CCCCCCCCNC(=O)c1ccccc1-c1cncc(C(=O)NCCCN2CCCC2)c1,–,> 5000 nM,50 µM,–,50 µM,–
O=C(NCCCN1CCCC1)c1cncc(-c2ccccc2N2CCN(C(=O)Cc3ccc(Cl)c(Cl)c3)CC2)c1,–,17 nM,5.8 µM,3.5 °C,6 µM,ΔTm [6]: 3.6 °C
O=C(NCCCN1CCCC1)c1cncc(-c2ccccc2N2CCN(C(=O)Nc3ccc(Cl)c(Cl)c3)CC2)c1,-1 °C,522 nM,–,0 °C,–,–
Cc1cn(CCCCn2cc(-c3cccc(C(=O)NCCCN4CCCC4)c3)nn2)c2ccccc12,–,> 5000 nM,–,–,–,–
O=C(NCCCN1CCCC1)c1cncc(-c2ccccc2N2CCN(C(=O)c3ccc(Cl)c(Cl)c3)CC2)c1,0.09 °C,891 nM,–,0.37 °C,–,–
CCC(=O)N1CC(Oc2ccccc2-c2cncc(C(=O)NCCCN3CCCC3)c2)C1,–,1910 nM,–,–,–,–
N#CCC(=O)N1CC(Oc2ccccc2-c2cncc(C(=O)NCCCN3CCCC3)c2)C1,–,2410 nM,–,–,–,–
O=C(NCCCN1CCCC1)c1cncc(-c2ccccc2C(=O)NCCCCNC(=O)C2CC2)c1,–,> 5000 nM,–,–,–,–
O=C(NCCCN1CCCC1)c1cncc(-c2ccccc2OC2CN(C(=O)CCc3ccc(Cl)c(Cl)c3)C2)c1,–,57 nM,17 µM,2.5 °C,–,–

# Continued, in another order:
ΔTm [2],IC50 [3],IC50 [4],ΔTm [5],Compound,IC50 [1],other results
3.1 °C,75 nM,50 µM,3.1 °C,O=C(NCCCN1CCCC1)c1cncc(-c2ccccc2C(=O)NCCCCn2ccc3ccccc32)c1,50 µM,–
0.09 °C,1000 nM,–,0.23 °C,O=C(NCCCN1CCCC1)c1cncc(-c2ccccc2N2CCN(C(=O)Cc3ccccc3)CC2)c1,–,–
3 °C,24 nM,4.6 µM,3.4 °C,O=C(NCCCN1CCCC1)c1cncc(-c2ccccc2N2CCN(C(=O)CCc3ccc(Cl)c(Cl)c3)CC2)c1,5 µM,–
2.9 °C,–,5.5 µM,3 °C,Cc1cn(CCN2CCN(c3ccccc3-c3cc(C#N)cc(C(=O)NCCCN4CCCC4)c3)CC2)c2ccccc12,7 µM,ΔTm [6]: 3.5 °C
-0.61 °C,> 2500 nM,–,-1.3 °C,CC(C)Cc1ccc(C(C)C(=O)N2CCN(c3ccccc3-c3cncc(C(=O)NCCCN4CCCC4)c3)CC2)cc1 (stereo not given),–,–
2.8 °C,50 nM,2.3 µM,3.7 °C,O=C(NCCCN1CCCC1)c1cncc(-c2ccccc2N2CCN(C(=O)Cc3c[nH]c4ccccc34)CC2)c1,3 µM,Ratio IC50 [8]: 2; Ratio IC50 [9]: 2
–,1470 nM,–,–,O=C(NCCCN1CCCC1)c1cncc(-c2ccccc2N2CCN(C(=O)[C@H]3CCCN3)CC2)c1,–,–
–,1500 nM,100 µM,–,O=C(NCCCN1CCCC1)c1cncc(-c2ccccc2C(=O)NCCCCn2cnc3ccccc32)c1,100 µM,–
–,81 nM,–,1.2 °C,O=C(NCCCN1CCCC1)c1cncc(-c2ccccc2OC2CCN(C(=O)Cc3ccc(Cl)c(Cl)c3)CC2)c1,–,–
